Source: US9560848B2, “Method and compositions for biofouling deterrence” (Clemson University, priority 2008, dated 2017)

Key:
[1] = test system: Oyster larvae; assay: Treatment of oyster larvae with micromolar concentrations of noradrenalin; assay type: in vivo
Source text: Effect of Treatment of Oyster Larvae with Micromolar Concentrations of Noradrenalin

[2] = test system: Oyster larvae; details: Coon, Bonar et al 1986; cited from earlier work
[3] = test system: cyprids of the barnacle Balanus amphitrite; assay type: in vivo
Protocol: Barnacle cyprids were challenged with 30-100 micro molar ranges of noradrenalin. Barnacle cyprids were monitored and assayed over period of 120 hours (5 days). Cyprid metamorphosis was imaged at 24, 48, 96, 120 hour intervals. Images were taken at each intervals and samples preserved for SEM analysis. On the last day of the experiments the metamorphosed barnacles were assayed for viability. The experiments were repeated 4 times with 3 replicates per experiment. […] Post NA treatment, either by flash induction or by incubating the cyprids in ASW containing NA. […] The onset of ecdysis was observed between 24 hr and 48 hr post NA treatment. Metamorphosing juvenile barnacles were seen encased in bivalve cyprid carapace. The pumping action of the thorax similar to beating of cirri was also observed (Glenner and Høeg 1993). […] Some ecdysing barnacles were still encased in cyprid carapaces while others had shed the bivalve carapace. The cyprids that had shed carapace were presumed to have ‘grown’ out of it as opposed to have shed carapace voluntarily as observed in untreated attached cyprids (Glenner and Høeg 1993). […] Ninety-six hours post NA treatment, the operculum with tergal and scutal plates is well demarcated from the wall plates. In contrast, control barnacles can be seen fully calcified with well recognizable wall and opercular shell plates at around 24-48 hr post settlement. Thus the NA treated cyprids took 96 hr to fully metamorphose and calcify but remained unattached and un-cemented to the substratum.
Exploration of surfaces by invertebrate larvae is an important step leading to attachment and metamorphosis into juveniles. Oyster pediveliger larvae and barnacle cyprid larvae investigate surfaces using exploratory structures bearing an array of sensory cells. The effect of the neurotransmitter noradrenaline (NA) was investigated on the cyprids of the barnacle Balanus amphitrite. 1 day old cyprids were challenged with micro-molar concentrations of NA ranging from […] and assayed over 5 days. […] Remnants of cyprid organs such as the antennules were clearly visible in metamorphosed juveniles. […] Cyprids are compared to oyster larvae to understand the effects of NA on the signal transduction cascades involved in larval settlement and to explore NAs potential as a natural fouling deterrent. Materials and Methods One day old cypris larvae of the B. amphitrite were challenged with […] of noradrenaline. Cyprids were challenged in two different ways. One group was flash challenged for 3 hours then washed with artificial sea water (ASW) and incubated in ASW free of NA for the remaining duration of the experiment. The second group was incubated with NA for 24 hours then washed and incubated in ASW for the remaining duration of the experiment. Barnacle cyprids were monitored and assayed over period of 120 hours (5 days). Cyprid metamorphosis was imaged at 24, 48, 96, 120 hour intervals. Images were taken at each intervals and samples preserved for SEM analysis. The cyprid larvae were imaged using, Zeiss discovery V12 stereo-microscope, Nikon AZ100 stereo-macrosope and the Hitachi-4800 field emission scanning electron microscope. On the last day of the experiments the metamorphosed barnacles were assayed for viability. Viability was ascertained by observing the movement of cirri and ability of the metamorphosed barnacles to feed normally. The experiments were repeated 4 times with 3 replicates per experiment.

With `NCC(O)c1ccc(O)c(O)c1` (racemic) [NA, DL-noradrenaline] the “metamorphosis of treated oyster larvae” value [1] was “metamorphose into adult oysters without cementation”, the “settling behavior and cementation of oyster larvae” value [1] was “complete disruption of the settling behavior and cementation” and the “viability and development of treated oysters” value [1] was “viable and develop normally into adults”. For the same compound, the “swimming of NA treated oyster larvae” value [2] was “stopped swimming and sank to the bottom of petri dishes”, the “metamorphosis of treated cyprids” value ([3]; 30-100 micro molar NA) was “metamorphosed into adults” and the “settling, attachment or cementation of cyprids” value ([3]; 30-100 micro molar NA, flash challenge 3 hours or 24 hours incubation, monitored 120 hours, listed as noradrenalin) was “prevented them from settling or attaching to a surface”. For the same compound, the “time to fully metamorphose and calcify” value ([3]; NA treated cyprids, controls 24-48 hr post settlement) was 96 h, the “swimming of cyprids post NA treatment” value ([3]; flash induction or incubation in ASW containing NA) was “stopped swimming and sank to the bottom” and the “appearance of juvenile barnacles compared to controls” value ([3]; in vivo) was “appeared to be normal”. For the same compound, the “onset of ecdysis post NA treatment” value ([3]; post NA treatment) was 24 to 48 h.
